The values that follow come from patent US4291164A, “Cephalosporin analogs and methods for production thereof” (Kyowa Hakko Kogyo Co., Ltd., priority 1978, dated 1981).

For assay [1] the following is noted: J. Am. Chem. Soc. 96, 7584 (1974); J. Med. Chem. 20, 551; cited from earlier work.
Assay [2] relates to Proteus mirabilis 1287. The experiment in a line: Antibacterial activity, Heart Infusion Agar Dilution Method, Proteus mirabilis 1287. In kind it is cell-based. To be noted: pH 7.2, read-out: Minimum Inhibitory Concentration. How it is done: (§1) The antibacterial activity of the compounds obtained in the above Examples 24, 26, 28, 30, 32, 34, 36, 38, 40 and 41 are determined by Heart Infusion Agar Dilution Method (pH 7.2). Cefazolin is used as a reference.

For assay [3], the system named is Serratia marcescens T26. In words: Antibacterial activity, Heart Infusion Agar Dilution Method, Serratia marcescens T26. The format is cell-based. To be noted: pH 7.2, read-out: Minimum Inhibitory Concentration.
Assay [4] deals with Escherichia coli NIHJC2. In words: Antibacterial activity, Heart Infusion Agar Dilution Method, Escherichia coli NIHJC2. The format is cell-based. As to the method:
as §1

Assay [5] concerns Staphylococcus aureus Smith. The experiment in a line: Antibacterial activity, Heart Infusion Agar Dilution Method, Staphylococcus aureus Smith. The settings on record: pH 7.2, read-out: Minimum Inhibitory Concentration. In kind it is cell-based. As to the method:
as §1

Assay [6] deals with Pseudomonas aeruginosa 145. The experiment in a line: Antibacterial activity, Heart Infusion Agar Dilution Method, Pseudomonas aeruginosa 145. The format is cell-based. The settings on record: Pseudomonas aeruginosa, 145, pH 7.2; read-out: Minimum Inhibitory Concentration. How it is done:
as §1

In assay [7] the test system is Proteus morganii KY4298. The experiment in a line: Antibacterial activity, Heart Infusion Agar Dilution Method, Proteus morganii KY4298. In kind it is cell-based. The settings on record: Morganella morganii, pH 7.2, read-out: Minimum Inhibitory Concentration. As to the method: as §1
Assay [8] deals with Staphylococcus epidermidis. The experiment in a line: Antibacterial activity, Heart Infusion Agar Dilution Method, Staphylococcus epidermidis. In kind it is cell-based. To be noted: pH 7.2, read-out: Minimum Inhibitory Concentration. How it is done: as §1
Assay [9] relates to Proteus rettgeri KY4289. In words: Antibacterial activity, Heart Infusion Agar Dilution Method, Proteus rettgeri KY4289. To be noted: Providencia rettgeri, pH 7.2, read-out: Minimum Inhibitory Concentration. The format is cell-based. How it is done: as §1
The test system of assay [10] is Klebsiella pneumoniae Y60. The experiment in a line: Antibacterial activity, Heart Infusion Agar Dilution Method, Klebsiella pneumoniae Y60. The settings on record: pH 7.2, read-out: Minimum Inhibitory Concentration. In kind it is cell-based.
For assay [11], the system named is Staphylococcus aureus 209p. The experiment in a line: Antibacterial activity, Heart Infusion Agar Dilution Method, Staphylococcus aureus 209p. In kind it is cell-based. The settings on record: pH 7.2, read-out: Minimum Inhibitory Concentration. How it is done:
as §1

Assay [12] relates to Microorganism. The experiment in a line: Antimicrobial activity as shown in table (overall statement). The format is cell-based. The settings on record: as shown in table below. As to the method:
as §1

For assay [13], the system named is Escherichia coli Juhl. The experiment in a line: Antibacterial activity, Heart Infusion Agar Dilution Method, Escherichia coli Juhl. The format is cell-based.
Assay [14] deals with Klebsiella pneumoniae 8045. In words: Antibacterial activity, Heart Infusion Agar Dilution Method, Klebsiella pneumoniae 8045. In kind it is cell-based. The settings on record: pH 7.2, read-out: Minimum Inhibitory Concentration. As to the method: as §1
The test system of assay [15] is Proteus vulgaris 6897. In words: Antibacterial activity, Heart Infusion Agar Dilution Method, Proteus vulgaris 6897. The format is cell-based. To be noted: pH 7.2, read-out: Minimum Inhibitory Concentration. As to the method: as §1
Assay [16] has as its system Serratia marcescens T55. The experiment in a line: Antibacterial activity, Heart Infusion Agar Dilution Method, Serratia marcescens T55. The format is cell-based. The settings on record: pH 7.2, read-out: Minimum Inhibitory Concentration.
Assay [17] deals with Pseudomonas putida F264. In words: Antibacterial activity, Heart Infusion Agar Dilution Method, Pseudomonas putida F264. In kind it is cell-based. The settings on record: pH 7.2, read-out: Minimum Inhibitory Concentration.
The test system of assay [18] is Staphylococcus aureus KY4279. The experiment in a line: Antibacterial activity, regular agar dilution, Staphylococcus aureus KY4279. The format is cell-based. The settings on record: pH 7.0. As to the method: (§2) The antibacterial activity of (±)-cis-2-carboxy-7-[2-(thiophene-2-yl)acetylamino]-1-azabicyclo[4,2,0]oct-2-en-8-one obtained in Example 21 above is set forth below. The activity is determined by the regular agar dilution at pH 7.0.

Assay [19] deals with Erwinia aroides KY3241. The experiment in a line: Antibacterial activity, regular agar dilution, Erwinia aroides KY3241. The format is cell-based. To be noted: pH 7.0. How it is done:
as §2

Assay [20] relates to Klebsiella penumoniae KY4275. The experiment in a line: Antibacterial activity, regular agar dilution, Klebsiella penumoniae KY4275. To be noted: pH 7.0. In kind it is cell-based. As to the method: as §2
The subject of assay [21] is Bacillus subtilis KY4273. The experiment in a line: Antibacterial activity, regular agar dilution, Bacillus subtilis KY4273. The settings on record: pH 7.0. In kind it is cell-based. As to the method: as §2
The subject of assay [22] is Shigella sonnei KY4281. In words: Antibacterial activity, regular agar dilution, Shigella sonnei KY4281. In kind it is cell-based. To be noted: pH 7.0. How it is done: as §2
The subject of assay [23] is Escherichia coli KY4271. In words: Antibacterial activity, regular agar dilution, Escherichia coli KY4271. The settings on record: pH 7.0. In kind it is cell-based. How it is done: as §2
Assay [24] relates to Proteus vulgaris KY4277. In words: Antibacterial activity, regular agar dilution, Proteus vulgaris KY4277. The format is cell-based. The settings on record: pH 7.0. As to the method:
as §2

The subject of assay [25] is Salmonella typhosa KY4278. The experiment in a line: Antibacterial activity, regular agar dilution, Salmonella typhosa KY4278. In kind it is cell-based. The settings on record: Salmonella enterica, pH 7. How it is done: as §2
Assay [26] has as its system Vibrio percolans KY4174. In words: Antibacterial activity, regular agar dilution, Vibrio percolans KY4174. The format is cell-based. The settings on record: Comamonas terrigena, pH 7.0. How it is done: as §2
Where [27] appears, read: Escherichia coli NIHJC2, Heart Infusion Agar Dilution, pH 7.2, read-out: Minimum Inhibitory Concentration.
Setting [28] is: Escherichia coli Juhl, Heart Infusion Agar Dilution, pH 7.2, read-out: Minimum Inhibitory Concentration.

The structures appear in SMILES notation. Converted amounts (≈) assume the structure as drawn. Where two headings read alike, the source gives them in different places. A value given as a limit tells only on which side of the number the result lay.

Consider `CC(=O)OCC1=C(C(=O)O)N2C(=O)C(NC(=O)Cc3cccs3)C2CC1` (racemic) [(±)-1-carbacephalotin], for which, in assay [1], the “antibacterial activity (in words)” value was “having antibacterial activity”.
As to `CCN1CCN(C(=O)NC(C(=O)NC2C(=O)N3C(C(=O)O)=CCCC23)c2ccccc2)C(=O)C1=O` (stereo in doubt) [Example 28, (±)-cis-7-[(R)-2-phenyl-2-(4-ethyl-2,3-dioxo-1-piperazinylcarbonylamino)acetamido]-1-azabicyclo[4,2,0]oct-2-en-8-one-2-carboxylic acid], the MIC in assay [2] turned out to be 1.56 µg/mL (≈ 3.23 µM); in [3], 25 µg/mL (≈ 51.7 µM); in [4] (setting [27]), 1.56 µg/mL (≈ 3.23 µM); in assay [5], 3.12 µg/mL (≈ 6.45 µM); in assay [6], 100 µg/mL (≈ 207 µM); in [7] it was 3.12 µg/mL (≈ 6.45 µM). In addition, the MIC in assay [8] was 3.12 µg/mL (≈ 6.45 µM); in assay [9] it was 6.25 µg/mL (≈ 12.9 µM); in [10] it was 25 µg/mL (≈ 51.7 µM); in assay [11], 0.78 µg/mL (≈ 1.61 µM); in assay [13] (setting [28]), 1.56 µg/mL (≈ 3.23 µM); in assay [14], < 0.05 µg/mL. Also, the MIC in assay [15] is < 0.05 µg/mL; in assay [16] it was 3.12 µg/mL (≈ 6.45 µM); in assay [17] it was 6.25 µg/mL (≈ 12.9 µM). Besides, the “antimicrobial activity (in words)” value in [12] is listed as “strong antimicrobial activity”.
Turning to `Cc1nnc(SCC2=C(C(=O)O)N3C(=O)[C@@H](NC(=O)Cn4cnnn4)[C@H]3SC2)s1` [Cefazolin, reference compound], the MIC in assay [2] is 12.5 µg/mL (≈ 27.5 µM); in assay [3] it was > 100 µg/mL; in [4] (Escherichia coli, NIHJC2, pH 7.2, read-out: Minimum Inhibitory Concentration), 1.56 µg/mL (≈ 3.43 µM); in [5], 0.4 µg/mL (≈ 0.88 µM); in assay [6], > 100 µg/mL; in [7], > 100 µg/mL. The MIC in [8] was 0.78 µg/mL (≈ 1.72 µM); in [9], 25 µg/mL (≈ 55 µM); in [10], 3.12 µg/mL (≈ 6.86 µM); in [11] it was < 0.05 µg/mL; in assay [13] (Escherichia coli, pH 7.2, read-out: Minimum Inhibitory Concentration) it was 1.56 µg/mL (≈ 3.43 µM); in assay [14], 0.78 µg/mL (≈ 1.72 µM). Besides, the MIC in assay [15] is 12.5 µg/mL (≈ 27.5 µM); in assay [16] it was 50 µg/mL (≈ 110 µM); in assay [17], > 100 µg/mL.
Consider `O=C(Cc1cccs1)NC1C(=O)N2C(C(=O)O)=CCCC12` (stereo not drawn) [Example 21, (±)-cis-2-carboxy-7-[2-(thiophene-2-yl)acetylamino]-1-azabicyclo[4,2,0]oct-2-en-8-one], for which the MIC in [18] was found to be 1 µg/mL (≈ 3.26 µM); in [19], 1 µg/mL (≈ 3.26 µM); in assay [20], 4 µg/mL (≈ 13.1 µM); in assay [21], 2 µg/mL (≈ 6.53 µM); in [22] it was 8 µg/mL (≈ 26.1 µM); in assay [23], 8 µg/mL (≈ 26.1 µM). For the same molecule, the results for the MIC in [24], in assay [25] and in assay [26] were 8 µg/mL (≈ 26.1 µM), 1 µg/mL (≈ 3.26 µM) and 2 µg/mL (≈ 6.53 µM), respectively.
For `N[C@@H](C(=O)N[C@@H]1C(=O)N2C(C(=O)O)=CCC[C@H]12)c1ccccc1` [Example 26 B isomer], the MIC in assay [2] is 12.5 µg/mL (≈ 39.6 µM); in [4] (setting [27]), 3.12 µg/mL (≈ 9.89 µM); in [5], 6.25 µg/mL (≈ 19.8 µM); in assay [7], 50 µg/mL (≈ 159 µM); in assay [8], 3.12 µg/mL (≈ 9.89 µM); in [9] it was 12.5 µg/mL (≈ 39.6 µM). Besides, the MIC was determined as 3.12 µg/mL (≈ 9.89 µM) in [10]; 0.4 µg/mL (≈ 1.27 µM) in assay [11]; 3.12 µg/mL (≈ 9.89 µM) in assay [13] (setting [28]); 0.78 µg/mL (≈ 2.47 µM) in assay [14]; 50 µg/mL (≈ 159 µM) in assay [15]; 12.5 µg/mL (≈ 39.6 µM) in assay [16]. For the same molecule, the MIC in [17] amounted to 100 µg/mL (≈ 317 µM). Also, the “antimicrobial activity (in words)” value in assay [12] is “stronger antimicrobial activity than the more polar isomer”.
